Experimental data published in US11872199B2, “Topical formulations of cyclooxygenase inhibitors and their use” (SMARTECH TOPICAL, INC., priority 2019, dated 2024).

What was measured:
[1] = Franz diffusion cell skin permeation testing of diclofenac formulations; assay type: in vitro ADME, human; conditions: Example 7, as permeation enhancer in 2% diclofenac formulation
Experimental: Franz diffusion cell experiments were used to analyze flux rates of diclofenac from compositions taught under the present disclosure across human skin. See, e.g., Bartosova and Bajgar, Transdermal Drug Delivery In Vitro Using Diffusion Cells, Curr. Med. Chem. 2012, 19: 4671-4677.
In the examples described herein, Franz diffusion cells (“FDC”s) with a 3.3 mL receptor well volume were used, with either porcine skin or human cadaver skin. For human cadaver skin, split thickness human cadaver skin (0.015″-0.018″) was obtained from AlloSource (Centennial, Colo.) or Skin Bank New York Firefighters (New York, N.Y.). The skin tissue was dermatomed by the tissue bank to a thickness of some 250 μm and shipped frozen on dry ice. […]
The integrity and quality of each skin piece was tested prior to application of the test formulations through measurement of the transdermal flux of tritiated water or of the transepidermal electrical resistance (“TEER”) (skin integrity was usually not tested on porcine skin pieces). […] An alternating current (“AC”) signal, 100 mV root mean square (“RMS”) at 100 Hz, was applied across the skin using a waveform generator and the impedance is then measured with a digital multimeter and the results recorded in kΩ. Any FDC showing anomalously low impedance (nominally <2 kΩ) was discarded and the FDCs were ranked according to the magnitudes of the measured impedance readings. […]

[2] = printed as negative log P; cited from earlier work

Row | effect on penetration of diclofenac [1] | SMILES | log P [2]
1 | enhance penetration of diclofenac | CCCCCCCC/C=C\CCCCCCCC(=O)O [Oleic Acid, cis-9-octadecenoic acid] | –
2 | enhance penetration of diclofenac | CCCCCCCC/C=C\CCCCCCCCO [Oleyl Alcohol, oleyl alcohol] | –
3 | – | CCOCCOCCO [Transcutol, 2-(2-Ethoxyethoxy)ethanol] | ~-0.5
